Three compounds from paper PMC6905855, “Agonist-specific voltage-dependent gating of lysosomal two-pore Na^+ channels” (eLife, 2019) can be followed below.

Several values for one entry are separate records, joined by “and”; a condition that tells them apart may be missing. Identical values can stand only once. Entries after “also recorded” stand apart in the source; their conditions may differ.

The test system of assay [1] is T1, TPC2^LL/AA.
T1 construct: expressed in transfected cells; host or cells: HEK293
Kind of assay: Inside-out patch recordings of ITPC2. Type of assay: biochemical, human. The note with it: for time course of LyNa-VA1.2-induced ITPC2: I/o.

Assay [2] relates to T2, TPC2^N653G.
T2 construct: expressed in transfected cells
Kind of assay: Whole-endolysosome recordings of ITPC2-N653G. Type of assay: biochemical, human. The note with it: for PX / PNa, K+: TPC2 N653G, agonist-activated current.

For assay [3], the system named is non-transfected HEK293 cells. Briefly: Whole-cell recordings in non-transfected cells. Type of assay: cell-based, Homo sapiens. An excerpt: To our surprise, 5 out of the 23 compounds are well characterized as tri-cyclic anti-depressants (TCAs), which are believed to act on neurotransmitter transporters or voltage-gated Na^+ channels ([Cheng and Bahar, 2019]; [Pancrazio et al., 1998]). We therefore characterized the responses of TPC2 channels to TCAs in detail using electrophysiological methods. We first performed whole-cell recordings in HEK293 cells that were transfected with surface-expressed TPC2 mutant channels (TPC2-L^11L^12-AA; abbreviated as TPC2^LL/AA hereafter). No functional difference was noted between wild-type (WT) TPC2 and TPC2^LL/AA channels in terms of channel permeation and gating properties ([Wang et al., 2012]). To facilitate the detection of TPC2-specific currents, we used symmetric Na^+ solutions in the bath (extracellular) and pipette (cytosolic) solutions ([Wang et al., 2012]).
Whole-cell recordings were performed using pipette electrodes with resistance of 3–5 MΩ. […] All bath solutions were applied via a perfusion system that allowed complete solution exchange within a few seconds. Data were collected using an Axopatch 200A patch clamp amplifier, Digidata 1440, and pClamp 10.2 software (Axon Instruments). […] All experiments were conducted at room temperature (21–23°C), and all recordings were analyzed with pClamp 10.2, and Origin 8.0 (OriginLab, Northampton, MA).

The test system of assay [4] is T3, TRPML1.
T3 construct: expressed in transfected cells
Kind of assay: Whole-endolysosome recordings of ITRPML1. Format: biochemical. The note with it: TRPML1-transfected cells.

Assay [5] deals with T4, hTPC1^R540I.
T4 construct: expressed in transfected cells; host or cells: Cos1
Kind of assay: Whole-endolysosome recordings of ITPC1-R540I. Type of assay: biochemical, human.

Where [6] appears, read: inside out, 200 µM, individual recordings.
[7] abbreviates: inside-out, 200 µM, mean ± S.E.M.

For the compound `CNCCCN1c2ccccc2CCc2ccccc21` [LyNa-VA1.2, Desipramine], the “activation of ITPC2 in inside-out patch (in words)” value in assay [1] (200 µM) is recorded as “evoked”. Moreover, the “time course of LyNa-VA1.2-induced ITPC2” value in assay [1] (time 0 s) is -0.06927; in assay [1] (time 2 s), -0.0966; in assay [1] (time 4 s), -0.00941; in assay [1] (time 6 s), -8.49E-04; in assay [1] (time 8 s), -0.06407; in assay [1] (time 10 s) it was -0.08365. Further, the “time course of LyNa-VA1.2-induced ITPC2” value in assay [1] (time 12 s) is -0.08538; in assay [1] (time 14 s), -0.09864; in assay [1] (time 16 s), -0.09741; in assay [1] (time 18 s) it was -0.1284; in assay [1] (time 20 s), -0.2599; in assay [1] (time 22 s), -0.3874. Further, the “time course of LyNa-VA1.2-induced ITPC2” value is on record as -0.5101 in assay [1] (time 24 s); -0.54 in assay [1] (time 26 s); -0.5044 in assay [1] (time 28 s); -0.6046 in assay [1] (time 30 s); -0.6923 in assay [1] (time 32 s); -0.8892 in assay [1] (time 34 s). The “time course of LyNa-VA1.2-induced ITPC2” value in assay [1] (time 36 s) was -0.754; in assay [1] (time 38 s), -0.8074; in assay [1] (time 40 s), -0.7387; in assay [1] (time 42 s), -0.8794; in assay [1] (time 44 s) it was -0.9937; in assay [1] (time 46 s), -1. Moreover, the “time course of LyNa-VA1.2-induced ITPC2” value in assay [1] (time 48 s) was -0.9555; in assay [1] (time 50 s), -0.9211; in assay [1] (time 52 s), -0.87. Moreover, in assay [1] (setting [6]), the “Latency of induced ITPC2” value was 8 s and 12 s and 14 s. In assay [1] (setting [6]), the “Time constant (τ) of induced ITPC2” value is 13.9 s and 16.3 s and 17.9 s and 21.3 s. Also, the “latency of TPC2 activation” value in assay [1] (setting [7]) is 12 ± 1 s. Also, the “time constant (τ) of TPC2 activation” value in assay [1] (setting [7]) came to 17 ± 2 s. For the same compound, the “activation of TPC2 N653G (in words)” value in assay [2] is given as “did not alter the ability of LyNa-VA1.2 to enhance channel activation”. Besides, the “PX / PNa, K+” value in assay [2] (individual) was 0.5576 and 0.6267 and 0.3361 and 0.4961; in assay [2] (mean), 0.5041.
`Nc1nc2ccc(OC(F)(F)F)cc2s1` [LyNA1, Riluzole]: the “activation of whole-cell currents in non-transfected cells (in words)” value in assay [3] is “not in non-transfected HEK293 cells”. Also, in assay [4], the “activation of whole-endolysosome ITRPML1 (in words)” value was “no current activation; also recorded: lack of the activation effects”.
`CN(C)CCCN1c2ccccc2CCc2ccc(Cl)cc21` [LyNa-VA1.1, Clomipramine]: the “effect on ITPC1-R540I (in words)” value in assay [5] is “dramatic enhancement of inward currents at negative potentials”.
